ChEMBL document CHEMBL4421732, “Use of small molecule inhibitors targeting EYA tyrosine phosphatase” (2017)
One block for each molecule: values may come before it. Activity calls are given as the source filed them. No cut-off for these calls is given here.

Tests used:
Aorta [1] = assay: Inhibition of micro-vessel branching in […] mouse aorta cultured in collagen gels assessed as reduction in aortic ring sprouting at 7.5 uM by aortic ring sprouting assay; format: functional, tissue-based
Aorta [2] = assay: Inhibition of micro-vessel branching in […] mouse aorta cultured in collagen gels assessed as reduction in initial sprouting at 7.5 uM by aortic ring sprouting assay; format: functional, tissue-based
Aorta [3] = assay: Inhibition of micro-vessel branching in […] mouse aorta cultured in collagen gels assessed as attenuation of branching at 7.5 uM by aortic ring sprouting assay; format: functional, tissue-based
[4] = biological target: T1, Protein phosphatase EYA2 (Homo sapiens) (UniProt O00167); assay: Inhibition of EYA2 (unknown origin) stably transfected in human MCF10A cells assessed as inhibition of cell migration at 7.5 uM by transwell assay; format: cell-based
T1 sequence (whole entry): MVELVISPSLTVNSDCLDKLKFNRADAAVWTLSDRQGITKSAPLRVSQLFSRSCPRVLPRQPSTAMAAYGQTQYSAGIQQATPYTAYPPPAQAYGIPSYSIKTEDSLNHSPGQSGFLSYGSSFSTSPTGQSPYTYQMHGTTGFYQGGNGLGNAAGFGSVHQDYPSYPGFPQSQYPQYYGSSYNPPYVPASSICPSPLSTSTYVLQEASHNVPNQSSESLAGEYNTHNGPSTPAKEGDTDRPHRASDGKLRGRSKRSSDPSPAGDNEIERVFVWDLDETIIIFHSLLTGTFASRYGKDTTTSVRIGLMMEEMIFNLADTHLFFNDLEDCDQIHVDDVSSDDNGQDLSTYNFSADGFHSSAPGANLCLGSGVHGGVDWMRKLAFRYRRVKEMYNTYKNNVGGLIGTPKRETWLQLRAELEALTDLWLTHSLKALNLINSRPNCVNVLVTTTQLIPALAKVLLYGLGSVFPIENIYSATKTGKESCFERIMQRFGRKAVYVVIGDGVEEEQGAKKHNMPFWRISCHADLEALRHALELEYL

HUVEC = assay: Inhibition of cell proliferation of HUVEC incubated for 3 days by WST8 dye based assay relative to control; format: functional; details: for inhibition: Homo sapiens
Danio rerio [5] = organism: Danio rerio; assay: Induction of vasculature defects in 5.25 hpf stage FLK1-GFP transgenic Zebrafish embryos assessed as reduction in intersegmental vessel number and extension measured at 24 hpf stage by fluorescence microscopy; format: functional, organism-based
Danio rerio [6] = organism: Danio rerio; assay: Induction of vasculature defects in 5.25 hpf stage FLK1-GFP transgenic Zebrafish embryos assessed as reduction of intersegmental vessels at 0.25 uM measured at 24 hpf stage by fluorescence microscopy; format: functional, organism-based
Danio rerio [7] = organism: Danio rerio; assay: Induction of vasculature defects in 20 hpf stage FLK1-GFP transgenic Zebrafish embryos measured at 24 hpf stage by fluorescence microscopy; format: functional, organism-based
Danio rerio [8] = organism: Danio rerio; assay: Induction of general morphology changes in 20 hpf stage FLK1-GFP transgenic Zebrafish embryos measured at 24 hpf stage by fluorescence microscopy; format: functional, organism-based
[9] = biological target: T2, Protein phosphatase EYA3 (Homo sapiens) (UniProt Q99504); details: 3 to 10 uM
T2 sequence (whole entry): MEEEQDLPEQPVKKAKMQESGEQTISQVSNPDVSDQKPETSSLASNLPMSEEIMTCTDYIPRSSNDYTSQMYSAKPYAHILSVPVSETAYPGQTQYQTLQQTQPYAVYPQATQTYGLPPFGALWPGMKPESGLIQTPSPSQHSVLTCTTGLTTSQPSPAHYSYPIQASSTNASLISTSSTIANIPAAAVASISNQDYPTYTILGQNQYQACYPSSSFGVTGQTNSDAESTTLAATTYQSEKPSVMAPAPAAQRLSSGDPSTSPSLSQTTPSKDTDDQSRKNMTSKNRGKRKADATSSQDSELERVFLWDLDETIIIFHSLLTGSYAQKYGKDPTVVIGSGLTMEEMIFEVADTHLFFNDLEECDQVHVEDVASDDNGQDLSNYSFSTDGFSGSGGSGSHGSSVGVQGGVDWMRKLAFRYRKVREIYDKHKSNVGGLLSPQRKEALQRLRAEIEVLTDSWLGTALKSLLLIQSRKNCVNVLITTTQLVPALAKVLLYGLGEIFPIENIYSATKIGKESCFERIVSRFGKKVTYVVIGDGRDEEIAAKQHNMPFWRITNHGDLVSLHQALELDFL
Description: Competitive inhibition of poly-histidine and GST-tagged full length human Eya3 isoform 2 (127 to 573 residues) at 3 to 10 uM using para-nitrophenol phosphate substrate incubated for 30 mins

[10] = biological target: T2, Protein phosphatase EYA3 (Homo sapiens); details: 5 to 10 uM
Description: Inhibition of poly-histidine and GST-tagged full length human Eya3 isoform 2 (127 to 573 residues) assessed as reduction in Vmax at 5 to 10 uM using para-nitrophenol phosphate substrate incubated for 30 mins

[11] = biological target: T2, Protein phosphatase EYA3 (Homo sapiens); details: 5 to 10 uM; remark: listed apart in the source
Description: Inhibition of poly-histidine and GST-tagged full length human Eya3 isoform 2 (127 to 573 residues) assessed as reduction in Km at 5 to 10 uM using para-nitrophenol phosphate substrate incubated for 30 mins

Structure (SMILES): CC(O)c1oc2ccccc2c1C(=O)c1cc(Br)c(O)c(Br)c1 (configuration not stated)
inhibition (Aorta [1]): Dose-dependent effect | inhibition (Aorta [2]): Dose-dependent effect | inhibition (Aorta [3]): Dose-dependent effect

Structure (SMILES): CCc1oc2ccc(O)cc2c1C(=O)c1cc(Br)c(O)c(Br)c1
inhibition (Aorta [1]): Dose-dependent effect | inhibition (Aorta [2]): Dose-dependent effect | inhibition (Aorta [3]): Dose-dependent effect

Structure (SMILES): CCCCc1oc2ccccc2c1C(=O)c1cc(I)c(O)c(I)c1
inhibition (Aorta [1]): Dose-dependent effect | inhibition (Aorta [2]): Dose-dependent effect | inhibition (Aorta [3]): Dose-dependent effect

Structure (SMILES): CC(O)CCc1oc2ccccc2c1C(=O)c1cc(I)c(O)c(I)c1 (configuration not stated)
inhibition (Aorta [1]): inactive | inhibition (Aorta [2]): inactive | inhibition (Aorta [3]): inactive

inhibition [4]: Active | inhibition [9]: inactive | inhibition [10]: Active | inhibition [11]: Active
Structure (SMILES): CCc1oc2ccccc2c1C(=O)c1cc(Br)c(O)c(Br)c1
inhibition (HUVEC): inactive | Activity (Danio rerio [5]): Dose-dependent effect | Activity (Danio rerio [6]): Active | Activity (Danio rerio [7]): inactive | Activity (Danio rerio [8]): inactive

inhibition [4]: Active
Structure (SMILES): CCCCc1oc2ccccc2c1C(=O)c1ccc(O)cc1
Activity (Danio rerio [5]): Dose-dependent effect | Activity (Danio rerio [6]): inactive | Activity (Danio rerio [7]): inactive | Activity (Danio rerio [8]): inactive

Structure (SMILES): CCc1oc2cc(O)ccc2c1C(=O)c1cc(Br)c(O)c(Br)c1
inhibition (INH) (HUVEC): >50% | inhibition (Aorta [1]): Dose-dependent effect | inhibition (Aorta [2]): Dose-dependent effect | inhibition (Aorta [3]): Dose-dependent effect

inhibition [4]: Active
Structure (SMILES): CCc1oc2ccccc2c1C(=O)c1ccc(O)cc1
inhibition (HUVEC): inactive | Activity (Danio rerio [5]): Dose-dependent effect | Activity (Danio rerio [6]): inactive | Activity (Danio rerio [7]): inactive | Activity (Danio rerio [8]): inactive

Structure (SMILES): Cc1oc2ccccc2c1C(=O)c1ccc(O)c(I)c1
inhibition (Aorta [1]): Dose-dependent effect | inhibition (Aorta [2]): Dose-dependent effect | inhibition (Aorta [3]): Dose-dependent effect

Structure (SMILES): Cc1oc2ccccc2c1C(=O)c1cc(I)c(O)c(I)c1
inhibition (Aorta [1]): Dose-dependent effect | inhibition (Aorta [2]): Dose-dependent effect | inhibition (Aorta [3]): Dose-dependent effect
